Results from article PMC10609854 (Pharmaceuticals, 2023).

Test system: carrageenan-induced thermal hyperalgesia
Assay: carrageenan-induced thermal hyperalgesia (plantar test)
Assay type: in vivo
Details: rats
Method: The acute, local inflammation and paw edema was induced by subplantar injection of 0.1 mL of 1% carrageenan (made in PBS) into the rat right hind paw. The paw volume was measured using the dislocation of the water column of the plethysmometer (Plethysmometr 7140, Ugo Basile) before and at 1, 2, and 3 h after subplantar injection of carrageenan.
To evaluate the heightened sensitivity to thermal stimuli, we employed a plantar test apparatus (Commat Ltd., Ankara, Turkey). Rats were individually placed in plexiglass chambers and allowed to acclimatize for 20 to 30 min before testing. A radiant heat source was positioned beneath the chamber floor, directly under the hind paw. The time it took for the paw to withdraw in response to the heat was automatically recorded by a photocell and an electronic timer. The intensity of the radiant heat was adjusted to achieve baseline withdrawal times of 10–15 s, and a preset cut-off time of 30 s was established to prevent tissue damage. […] Three successive applications of the heating stimulus were performed, with 1- to 2-minute intervals between them, and the mean of these measurements was calculated. Paw withdrawal latency was recorded for each animal before carrageenan administration and at 1, 2, and 3 h afterward.

O=C(O)C(=O)O.c1ccc(-c2ccc(OCCCCCN3CCCCCC3)cc2)cc1 [Compound E153, 1-(5-(4-Phenylphenoxy)pentyl)azepane hydrogen oxalate]
paw withdrawal latency (thermal), % of baseline (15 mg/kg, 1 h after carrageenan): 100.8% | paw withdrawal latency (thermal), % of baseline (15 mg/kg, 2 h after carrageenan): 122.6% | paw withdrawal latency (thermal), % of baseline (15 mg/kg, 3 h after carrageenan): 122.6% | paw withdrawal latency (thermal), % of baseline (30 mg/kg, 1 h after carrageenan): 130.3% | paw withdrawal latency (thermal), % of baseline (30 mg/kg, 2 h after carrageenan): 114.8% | paw withdrawal latency (thermal), % of baseline (30 mg/kg, 3 h after carrageenan): 126.6%
